Laboratory results as given in patent publication EP3952873B1 (priority 2019, dated 2020).
“Also recorded” adds a separate entry of the source.

Assays:
GABAB(1b,2) receptors = biological target: T1, GABAB(1b,2) receptors (Homo sapiens, UniProt Q9UBS5); test: GABAB functional assay in CHO cells; assay type: cell-based; details: CHO cells stably expressing GABAB(1b,2), concentrations up to 300 µM
T1 construct: expressed in transfected cells
Source text: (§1) To assess affinity of JON-11 for the GABAB receptor, we employed a GABAB binding assay using rat brain synaptic membranes (Wellendorph et al., 2005). […] B) JON-11 was further assessed for functional activity using CHO cells stably expressing GABAB(1b,2) receptors (Rajalu et al., 2015).

GABAB receptor = biological target: T2, GABAB receptor (Rattus norvegicus, UniProt Q9Z0U4); test: GABAB binding assay with [3H]GABA, rat brain synaptic membranes; details: at 100 µM
T2 construct: from tissue; host or cells: rat brain synaptic membranes
Source text: as §1

in vivo = test: in vivo; set-up: species or system mice; details: male, C57BL/6JRj, mouse, ip, 10 mg/kg
Method: To evaluate the ability of pro-JON-11 (10) and JON-11 to penetrate the blood-brain barrier, a brain-to-plasma distribution ratio (B/P ratio) was obtained. All subjects were male C57BL/6JRj mice (24-26 g, Janvier Labs, France) housed in groups of three-four with ad libitum access to food and water. The mice were maintained under diurnal conditions (12-h light/dark cycle with lights on at 7 AM) in a temperature (22±1 °C) and humidity-controlled room (50±10%). Ethical permission for the procedures used in this in vivo study was granted by the Danish Animal Experiments Inspectorate.
Compounds were dissolved in PEG-400 (Sigma) at 20% of the final required volume. The final volume was then made up by 10% (w/v) hydroxypropyl-beta-cyclodextrin (Sigma Aldrich) in sterile saline. The solution was sonicated for 5 min. The JON-11 solution was pH-adjusted to 7.4 with 0.2% 2M NaOH.
Both compounds were injected i.p. at a dose of 10 mg/kg (n=3 for each compound). […] After 30 min, the animals were sacrificed by decapitation, trunk blood was collected in EDTA-coated tubes and the brain was gently removed. Blood and tissues were temporarily stored on ice until plasma and brain homogenate preparation. Blood plasma was separated from cells by centrifugation for 10 min at 1,500 x g at 4 °C and plasma harvested. […]
Plasma and brain exposure of JON-11 and pro-JON-11 were evaluated in male mice. […]

T1 sequence (Q9UBS5 1-844 isoform Q9UBS5-2): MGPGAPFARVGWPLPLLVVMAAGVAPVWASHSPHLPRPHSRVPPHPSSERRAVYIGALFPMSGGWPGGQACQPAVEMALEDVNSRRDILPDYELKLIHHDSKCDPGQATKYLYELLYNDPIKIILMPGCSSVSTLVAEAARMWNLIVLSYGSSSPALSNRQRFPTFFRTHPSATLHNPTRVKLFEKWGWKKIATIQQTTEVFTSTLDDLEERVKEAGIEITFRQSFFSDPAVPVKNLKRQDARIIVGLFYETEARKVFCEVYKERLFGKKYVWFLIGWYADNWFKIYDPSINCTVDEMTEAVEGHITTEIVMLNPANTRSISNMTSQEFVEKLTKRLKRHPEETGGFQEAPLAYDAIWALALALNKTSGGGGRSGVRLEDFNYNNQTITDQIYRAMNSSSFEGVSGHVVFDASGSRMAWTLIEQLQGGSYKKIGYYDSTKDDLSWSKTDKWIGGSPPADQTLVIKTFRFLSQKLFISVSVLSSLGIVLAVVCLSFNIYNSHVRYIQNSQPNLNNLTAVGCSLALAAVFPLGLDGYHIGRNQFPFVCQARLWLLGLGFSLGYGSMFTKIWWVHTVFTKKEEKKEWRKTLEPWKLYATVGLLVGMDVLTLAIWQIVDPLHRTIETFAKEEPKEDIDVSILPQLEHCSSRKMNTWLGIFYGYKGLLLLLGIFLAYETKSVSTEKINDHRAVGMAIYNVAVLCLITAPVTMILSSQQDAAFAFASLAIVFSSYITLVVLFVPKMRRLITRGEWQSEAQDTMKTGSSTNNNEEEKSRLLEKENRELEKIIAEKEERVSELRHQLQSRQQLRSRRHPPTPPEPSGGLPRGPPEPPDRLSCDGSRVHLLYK
T1 sequence (O75899 42-941 partner): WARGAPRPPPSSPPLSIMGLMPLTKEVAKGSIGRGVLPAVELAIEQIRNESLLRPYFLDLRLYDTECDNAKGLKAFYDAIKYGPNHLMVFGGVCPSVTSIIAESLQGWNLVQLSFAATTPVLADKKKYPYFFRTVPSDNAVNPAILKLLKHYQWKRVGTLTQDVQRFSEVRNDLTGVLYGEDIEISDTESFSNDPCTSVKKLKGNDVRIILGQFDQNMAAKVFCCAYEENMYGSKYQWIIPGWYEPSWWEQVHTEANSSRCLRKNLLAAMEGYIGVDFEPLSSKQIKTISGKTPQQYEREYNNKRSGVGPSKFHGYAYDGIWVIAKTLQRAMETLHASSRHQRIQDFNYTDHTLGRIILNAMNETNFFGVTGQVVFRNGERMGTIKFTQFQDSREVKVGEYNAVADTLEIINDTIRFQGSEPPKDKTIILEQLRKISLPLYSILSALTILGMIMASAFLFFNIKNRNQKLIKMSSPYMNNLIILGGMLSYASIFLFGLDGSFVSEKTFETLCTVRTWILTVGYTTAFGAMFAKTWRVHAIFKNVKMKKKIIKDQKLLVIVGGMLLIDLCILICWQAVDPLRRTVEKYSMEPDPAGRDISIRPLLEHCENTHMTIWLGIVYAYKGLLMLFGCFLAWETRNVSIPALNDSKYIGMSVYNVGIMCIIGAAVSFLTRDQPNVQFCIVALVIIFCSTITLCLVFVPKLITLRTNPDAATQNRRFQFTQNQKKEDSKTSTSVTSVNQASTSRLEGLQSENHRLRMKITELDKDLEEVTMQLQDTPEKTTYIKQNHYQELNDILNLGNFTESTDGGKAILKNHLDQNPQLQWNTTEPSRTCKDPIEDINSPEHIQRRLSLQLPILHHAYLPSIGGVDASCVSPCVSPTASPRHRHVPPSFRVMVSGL
T2 sequence (Q9Z0U4 20-960): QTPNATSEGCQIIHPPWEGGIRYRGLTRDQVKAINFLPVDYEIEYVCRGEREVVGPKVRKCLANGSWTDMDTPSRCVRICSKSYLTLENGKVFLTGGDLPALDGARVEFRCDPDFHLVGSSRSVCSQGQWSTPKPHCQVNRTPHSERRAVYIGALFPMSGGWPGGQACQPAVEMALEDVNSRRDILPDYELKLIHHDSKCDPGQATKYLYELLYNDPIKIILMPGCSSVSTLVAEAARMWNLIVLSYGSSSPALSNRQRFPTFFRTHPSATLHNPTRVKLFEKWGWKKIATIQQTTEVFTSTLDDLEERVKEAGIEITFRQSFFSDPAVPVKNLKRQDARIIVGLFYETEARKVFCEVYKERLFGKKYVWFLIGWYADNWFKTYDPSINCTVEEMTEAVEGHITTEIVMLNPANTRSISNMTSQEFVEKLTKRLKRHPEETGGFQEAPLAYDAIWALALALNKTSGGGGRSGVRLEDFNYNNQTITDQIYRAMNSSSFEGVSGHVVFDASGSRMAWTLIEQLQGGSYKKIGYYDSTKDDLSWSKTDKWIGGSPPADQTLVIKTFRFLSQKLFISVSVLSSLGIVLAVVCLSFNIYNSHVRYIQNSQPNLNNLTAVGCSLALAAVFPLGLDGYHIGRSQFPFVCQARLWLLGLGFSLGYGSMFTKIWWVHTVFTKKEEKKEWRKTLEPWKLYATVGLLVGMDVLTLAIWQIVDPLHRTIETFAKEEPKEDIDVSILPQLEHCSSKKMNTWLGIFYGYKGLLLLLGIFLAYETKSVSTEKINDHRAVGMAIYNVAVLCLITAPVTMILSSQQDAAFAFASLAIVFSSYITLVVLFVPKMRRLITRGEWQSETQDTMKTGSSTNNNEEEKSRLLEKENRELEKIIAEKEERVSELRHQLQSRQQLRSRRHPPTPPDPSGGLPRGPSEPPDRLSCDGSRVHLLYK
T2 sequence (O88871 41-940 partner): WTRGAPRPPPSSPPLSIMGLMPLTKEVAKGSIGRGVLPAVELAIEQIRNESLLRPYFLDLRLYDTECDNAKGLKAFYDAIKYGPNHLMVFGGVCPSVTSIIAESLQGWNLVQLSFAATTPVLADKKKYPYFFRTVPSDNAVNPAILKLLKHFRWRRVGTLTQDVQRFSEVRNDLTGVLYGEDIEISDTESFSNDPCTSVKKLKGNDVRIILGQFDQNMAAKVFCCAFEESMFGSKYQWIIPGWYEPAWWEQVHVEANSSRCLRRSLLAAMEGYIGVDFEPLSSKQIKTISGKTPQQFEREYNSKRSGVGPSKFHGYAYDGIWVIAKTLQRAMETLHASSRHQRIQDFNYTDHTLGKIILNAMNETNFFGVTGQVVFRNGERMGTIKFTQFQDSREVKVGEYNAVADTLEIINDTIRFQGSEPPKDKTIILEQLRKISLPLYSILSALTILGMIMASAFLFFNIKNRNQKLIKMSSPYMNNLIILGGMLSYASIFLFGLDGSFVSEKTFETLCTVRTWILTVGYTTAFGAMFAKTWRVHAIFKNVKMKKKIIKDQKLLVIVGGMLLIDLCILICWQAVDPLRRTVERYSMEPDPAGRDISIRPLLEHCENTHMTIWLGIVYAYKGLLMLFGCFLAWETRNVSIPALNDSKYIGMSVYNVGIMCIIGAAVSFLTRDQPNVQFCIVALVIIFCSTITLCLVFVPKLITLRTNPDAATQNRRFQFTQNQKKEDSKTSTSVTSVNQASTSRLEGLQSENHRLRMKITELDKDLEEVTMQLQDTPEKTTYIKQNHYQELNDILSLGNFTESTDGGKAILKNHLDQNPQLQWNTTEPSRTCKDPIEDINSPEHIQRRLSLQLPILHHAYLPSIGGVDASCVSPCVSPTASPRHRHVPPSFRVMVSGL

O=C(O)Cc1cn2nc(-c3ccc(Cl)cc3)ccc2n1 [JON-11, 2-(6-(4-Chlorophenyl)imidazo[1,2-b]pyridazin-2-yl)acetic acid]
agonistic activity at recombinant GABAB receptors (GABAB(1b,2) receptors): not a GABAB agonist; also recorded: Lack of agonistic activity
ability to compete with [3H]GABA (GABAB receptor): no ability to compete
Kp at 30 min (in vivo): 0.05
